Test results reported in patent US9751854B2 (Millennium Pharmaceuticals, Inc., priority 2014, dated 2017).
pIC50: −log10 of the molar value.

Target: human VPS34 (Homo sapiens (Human), UniProt Q8NEB9)
Experiment: Human VPS34 enzyme assay (Adapta TR-FRET ADP detection)
Type: biochemical
Parameters: Percent Inhibition: dose or concentration left out as unconfirmed
Details: not given

Chain of human VPS34 (Q8NEB9 whole entry): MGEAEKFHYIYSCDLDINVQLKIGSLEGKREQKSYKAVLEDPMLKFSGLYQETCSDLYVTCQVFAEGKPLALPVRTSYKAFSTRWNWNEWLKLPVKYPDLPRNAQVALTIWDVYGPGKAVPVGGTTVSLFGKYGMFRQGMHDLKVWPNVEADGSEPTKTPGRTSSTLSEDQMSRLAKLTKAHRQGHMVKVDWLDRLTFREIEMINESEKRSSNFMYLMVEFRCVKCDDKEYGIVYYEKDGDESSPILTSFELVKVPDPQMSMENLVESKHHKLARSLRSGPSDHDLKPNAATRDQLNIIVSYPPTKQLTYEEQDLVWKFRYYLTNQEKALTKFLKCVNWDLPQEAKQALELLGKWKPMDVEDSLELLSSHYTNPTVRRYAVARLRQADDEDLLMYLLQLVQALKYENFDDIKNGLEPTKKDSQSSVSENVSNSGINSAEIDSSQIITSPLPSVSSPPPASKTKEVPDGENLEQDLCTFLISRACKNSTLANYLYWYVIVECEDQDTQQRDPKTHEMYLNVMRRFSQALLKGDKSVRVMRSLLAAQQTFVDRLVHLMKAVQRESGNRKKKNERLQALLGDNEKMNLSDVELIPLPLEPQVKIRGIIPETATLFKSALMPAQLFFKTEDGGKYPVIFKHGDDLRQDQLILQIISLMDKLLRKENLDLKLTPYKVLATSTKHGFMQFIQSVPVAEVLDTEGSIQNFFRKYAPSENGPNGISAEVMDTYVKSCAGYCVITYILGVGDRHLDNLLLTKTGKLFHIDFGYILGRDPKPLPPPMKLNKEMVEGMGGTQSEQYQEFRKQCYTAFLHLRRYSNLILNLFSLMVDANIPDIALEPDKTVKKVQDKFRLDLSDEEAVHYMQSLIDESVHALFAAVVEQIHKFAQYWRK

| SMILES | Percent Inhibition [%] |
| --- | --- |
| Cc1cc(Nc2cc(-c3cnc(Cl)c(NS(=O)(=O)c4ccc(F)cc4F)c3C)ccn2)nc(C)n1 [Compound I-218, N-{6-chloro-2′-[(2,6-dimethylpyrimidin-4-yl)amino]-4-methyl-3,4′-bipyridin-5-yl}-2,4-difluorobenzenesulfonamide] | >99 |
| Cc1nc(Nc2cc(-c3cnc(Cl)c(NS(=O)(=O)c4ccc(F)cc4F)c3C)ccn2)ccc1C#N [Compound I-238, N-[6-chloro-2′-[(5-cyano-6-methylpyridin-2-yl)amino]-4-methyl-3,4′-bipyridin-5-yl]-2,4-difluorobenzenesulfonamide] | 93 |

Same assay, conditions: IC50 range class

| SMILES | pIC50 |
| --- | --- |
| CC(=O)Nc1cc(-c2cnc3[nH]ncc3c2)c(C)cn1 [Compound I-209, N-[5-methyl-4-(1H-pyrazolo[3,4-b]pyridin-5-yl)pyridin-2-yl]acetamide] | < 7.00 |
| CC(=O)Nc1cc(-c2cnc(N)c(C(=O)NC3CCOCC3)c2)ccn1 [Compound I-210, 2′-acetamido-6-amino-N-(tetrahydro-2H-pyran-4-yl)-3,4′-bipyridine-5-carboxamide] | 7.00 to 7.30 |
| CC(=O)Nc1cc(-c2cnc(C)c(NS(=O)(=O)c3ccccc3C)c2)ccn1 [Compound I-211, N-(6-methyl-5-{[(2-methylphenyl)sulfonyl]amino}-3,4′-bipyridin-2′-yl)acetamide] | > 8.00 |
| CC(=O)Nc1cc(-c2cnc(C)c(N(C)S(=O)(=O)C3CC3)c2)ccn1 [Compound I-212, N-{5-[(cyclopropylsulfonyl)(methyl)amino]-6-methyl-3,4′-bipyridin-2′-yl}acetamide] | 7.00 to 7.30 |
| CC(=O)Nc1cc(-c2cnc(Cl)c(C(=O)N(C)C)c2)ccn1 [Compound I-213, 2′-acetamido-6-chloro-N,N-dimethyl-3,4′-bipyridine-5-carboxamide] | 7.00 to 7.30 |
| CC(=O)Nc1cc(-c2cnc(C)c(NS(=O)(=O)N3CCCCC3)c2)ccn1 [Compound I-214, N-{6-methyl-5-[(piperidin-1-ylsulfonyl)amino]-3,4′-bipyridin-2′-yl}acetamide] | > 8.00 |
| Cc1nccc(Nc2cc(-c3cnc(Cl)c(S(=O)(=O)NC4CCC4)c3)ccn2)n1 [Compound I-215, 6-chloro-N-cyclobutyl-2′-((2-methylpyrimidin-4-yl)amino)-[3,4′-bipyridine]-5-sulfonamide] | 7.30 to 8.00 |
| N=C(N)NC(=O)c1cc(-c2ccnc(Nc3ccncn3)c2)cnc1N [Compound I-216, 6-Amino-N-carbamimidoyl-2′-(pyrimidin-4-ylamino)-3,4′-bipyridine-5-carboxamide] | 7.00 to 7.30 |
| Cc1cc(Nc2cc(-c3cnc(Cl)c(NS(=O)(=O)c4ccc(F)cc4F)c3C)ccn2)nc(C)n1 [Compound I-218, N-{6-chloro-2′-[(2,6-dimethylpyrimidin-4-yl)amino]-4-methyl-3,4′-bipyridin-5-yl}-2,4-difluorobenzenesulfonamide] | 7.30 to 8.00 |
| CC(=O)Nc1cc(-c2cnc(C)c(NS(=O)(=O)c3ccc(F)cc3F)c2)cc[n+]1[O-] [Compound I-219, N-[4-(5-{[(2,4-difluorophenyl)sulfonyl]amino}-6-methylpyridin-3-yl)-1-oxidopyridin-2-yl]acetamide] | 7.00 to 7.30 |
| COc1ncc(-c2ccnc(NC(C)=O)c2)cc1NS(=O)(=O)N(C)C [Compound I-220, N-{5-[(dimethylsulfamoyl)amino]-6-methoxy-3,4′-bipyridin-2′-yl}acetamide] | 7.30 to 8.00 |
| Cc1nccc(Nc2cc(-c3cnc(C)c(C(=O)N4CC(F)(F)C4)c3)ccn2)n1 [Compound I-221, (3,3-difluoroazetidin-1-yl){6-methyl-2′-[(2-methylpyrimidin-4-yl)amino]-3,4′-bipyridin-5-yl]methanone] | 7.30 to 8.00 |
| CNc1ncc(-c2ccnc(Nc3ccncn3)c2)cc1C(=O)N(C)C12CC(C1)C2 [Compound I-222, N-(bicyclo[1.1.1]pent-1-yl)-N-methyl-6-(methylamino)-2′-(pyrimidin-4-ylamino)-3,4′-bipyridine-5-carboxamide] | 7.30 to 8.00 |
| Cc1nccc(Nc2cc(-c3cnc(C)c(C(=S)N4CCC4)c3)ccn2)n1 [Compound I-223, Azetidin-1-yl{6-methyl-2′-[(2-methylpyrimidin-4-yl)amino]-3,4′-bipyridin-5-yl}methanethione] | 7.30 to 8.00 |
| COc1ncc(-c2ccnc(Nc3ccnc(C)n3)c2)cc1S(=O)(=O)NC1CCC1 [Compound I-224, N-cyclobutyl-6-methoxy-2′-[(2-methylpyrimidin-4-yl)amino]-3,4′-bipyridine-5-sulfonamide] | 7.30 to 8.00 |
| COc1nccc(Nc2cc(-c3cnc(Cl)c(NS(=O)(=O)c4ccc(F)cc4F)c3C)ccn2)n1 [Compound I-225, N-{6-chloro-2′-[(2-methoxypyrimidin-4-yl)amino]-4-methyl-3,4′-bipyridin-5-yl}-2,4-difluorobenzenesulfonamide] | > 8.00 |
| Cc1nccc(Nc2cc(-c3cnc(Cl)c(N)c3C)ccn2)n1 [Compound I-226, 6-chloro-4-methyl-N-2′-(2-methylpyrimidin-4-yl)-3,4′-bipyridine-2′,5-diamine] | 7.30 to 8.00 |
| CC(=O)Nc1cc(-c2cnc(Cl)c(NS(=O)(=O)c3cc(F)ccc3F)c2C)ccn1 [Compound I-227, N-(6-chloro-5-{[(2,5-difluorophenyl)sulfonyl]amino)-4-methyl-3,4′-bipyridin-2′-yl)acetamide] | 7.30 to 8.00 |
| Cc1ncc(-c2ccnc(Nc3ccc(C#N)cn3)c2)cc1NS(=O)(=O)c1ccc(F)cc1F [Compound I-228, N-{2′-[(5-cyanopyridin-2-yl)amino]-6-methyl-3,4′-bipyridin-5-yl}-2,4-difluorobenzenesulfonamide] | > 8.00 |

| SMILES | pIC50 |
| --- | --- |
| Cc1nc(Nc2cc(-c3cnc(C)c(NS(=O)(=O)N(C)C)c3)ccn2)ccc1C#N [Compound I-229, N-{2′-[(5-cyano-6-methylpyridin-2-yl)amino]-6-methyl-3,4′-bipyridin-5-yl}-N,N-dimethylsulfuric diamide] | > 8.00 |
| COc1nccc(Nc2cc(-c3cnc(N)c(C(=O)N(C)C45CC(C4)C5)c3)ccn2)n1 [Compound I-230, 6-amino-N-(bicyclo[1.1.1]pent-1-yl)-2′-((2-methoxypyrimidin-4-yl)amino)-N-methyl-[3,4′-bipyridine]-5-carboxamide] | 7.30 to 8.00 |
| Nc1cncc(-c2ccnc(N)c2)c1 [Compound I-231, 3,4′-bipyridine-2′,5-diamine] | < 7.00 |
| Cc1nccc(Nc2cc(-c3cnc(Cl)c(C(=O)N4CCC4)c3)ccn2)n1 [Compound I-232, azetidin-1-yl[6-chloro-2′-[(2-methylpyrimidin-4-yl)amino]-3,4′-bipyridin-5-yl}methanone] | 7.30 to 8.00 |
| Cc1ncc(-c2ccnc(Nc3nc4ccccc4o3)c2)cc1NS(=O)(=O)c1ccc(F)cc1F [Compound I-233, N-[2′-(1,3-benzoxazol-2-ylamino)-6-methyl-3,4′-bipyridin-5-yl}2,4-difluorobenzenesulfonamide] | 7.30 to 8.00 |
| Cc1nccc(Nc2cc(-c3cncc(C(=O)N(C)C45CC(C4)C5)c3)ccn2)n1 [Compound I-234, N-(bicyclo[1.1.1]pent-1-yl)-N-methyl-2′-[(2-methylpyrimidin-4-yl)amino]-3,4′-bipyridine-5-carboxamide] | 7.30 to 8.00 |
| Cc1ccc2ccc(Nc3cc(-c4cnc(C)c(NS(=O)(=O)c5ccc(F)cc5F)c4)ccn3)nc2n1 [Compound I-235, 2,4-difluoro-N-{6-methyl-2′-[(7-methyl-1,8-naphthyridin-2-yl)amino]-3,4′-bipyridin-5-yl}benzenesulfonamide] | 7.30 to 8.00 |
| CC(=O)Nc1cc(-c2cnc(Cl)c(NS(=O)(=O)N(C)C)c2C)ccn1 [Compound I-236, N-{6-chloro-5-[(dimethylsulfamoyl)amino]-4-methyl-3,4′-bipyridin-2′-yl}acetamide] | 7.30 to 8.00 |
| Cc1ncc(-c2ccnc(Nc3ccnc(C(F)(F)F)n3)c2)cc1NS(=O)(=O)c1ccc(F)cc1F [Compound I-237, 2,4-difluoro-N-(6-methyl-2′-{[2-(trifluoromethyl)pyrimidin-4-yl]amino}-3,4′-bipyridine-5-yl)benzenesulfonamide] | 7.30 to 8.00 |
| Cc1nc(Nc2cc(-c3cnc(Cl)c(NS(=O)(=O)c4ccc(F)cc4F)c3C)ccn2)ccc1C#N [Compound I-238, N-[6-chloro-2′-[(5-cyano-6-methylpyridin-2-yl)amino]-4-methyl-3,4′-bipyridin-5-yl]-2,4-difluorobenzenesulfonamide] | > 8.00 |
| Cc1ncc(-c2ccnc(Nc3ccncn3)c2)cc1NS(=O)(=O)c1ccc(F)cc1F [Compound I-239, 2,4-difluoro-N-(6-methyl-2′-(pyrimidin-4-ylamino)-3,4′-bipyridin-5-yl]benzenesulfonamide] | > 8.00 |
| CC(=O)Nc1cc(-c2cnc(Cl)c(NS(=O)(=O)c3ccccc3Cl)c2C)ccn1 [Compound I-240, N-(6-chloro-5-{[(2-chlorophenyl)sulfoayl]amino}-4-methyl-3,4′-bipyridin-2′-yl)acetamide] | 7.30 to 8.00 |
| COC(=O)Nc1cc(-c2cnc(C)c(NS(=O)(=O)N(C)C)c2)ccn1 [Compound I-241, methyl (5-[(dimethylsulfamoyl)amino]-6-methyl-3,4′-bipyridin-2′-yl]carbamate] | 7.30 to 8.00 |
| Cc1nccc(Nc2cc(-c3cnc(Cl)c(S(=O)(=O)NC45CC(C4)C5)c3)ccn2)n1 [Compound I-242, N-(bicyclo[1.1.1]pent-1-yl)-6-chloro-2′-[(2-methylpyrimidin-4-yl)amino]-3,4′-bipyridine-5-sulfonamide] | 7.30 to 8.00 |
| CC(=O)Nc1cc(-c2cnc(Cl)c(NS(=O)(=O)c3ccc(Cl)cc3Cl)c2C)ccn1 [Compound I-243, N-(6-chloro-5-{[(2,4-dichlorophenyl)sulfonyl]amino}-4-methyl-3,4′-bipyridin-2′-yl)acetamide] | 7.30 to 8.00 |
| Cc1ncc(-c2ccnc(NC(=O)C3CC3(F)F)c2)cc1NS(=O)(=O)N(C)C (stereo not shown) [Compound I-244, N-{5-[(dimethylsulfamoyl)amino]-6-methyl-3,4′-bipyridin-2′-yl}-2,2-difluorocyclopropanecarboxamide] | 7.30 to 8.00 |
| COc1nccc(Nc2cc(-c3cncc(C(=O)N(C)C45CC(C4)C5)c3)ccn2)n1 [Compound I-245, N-(bicyclo[1.1.1]pent-1-yl)-2′-[(2-methoxypyrimidin-4-yl)amino]-N-methyl-3,4′-bipyridine-5-carboxamide] | 7.30 to 8.00 |
| Cc1ncc(-c2ccnc(Nc3ccnc(C4CC4)n3)c2)cc1C(=O)N1CCC1 [Compound I-246, azetidin-1-yl{2′-[(2-cyclopropylpyrimidin-4-yl)amino]-6-methyl-3,4′-bipyridin-5-yl}methanone] | 7.30 to 8.00 |
| CC(=O)Nc1cc(-c2cnc(C)c(NS(=O)(=O)c3ccc(F)cc3F)c2C)ccn1 [Compound I-247, N-(5-{[(2,4-difluorophenyl)sulfonyl]amino}-4,6-dimethyl-3,4′-bipyridin-2′-yl)acetamide] | 7.30 to 8.00 |
